From patent US11458189B2, “Cytoprotective drugs” (BALMES TRANSPLANTATION, priority 2017, dated 2022)
Starred links: 1 amine or outer side, 2 acyl side, 3 side chain; linkers in the order of their positions; H or OH if unused. Positions of bridges follow the written chain, without caps; N, C: chain ends. Non-standard residues stand in square brackets, D forms with d. Residues, ends and D or L forms follow the SMILES beside them. *: point of attachment. hTyr(3S-OH,4S-OH,3'-OSO3H) = N[C@H](C(=O)O)[C@H](O)[C@@H](O)c1ccc(O)c(OS(=O)(=O)O)c1; Orn(4R-OH,5R-OH) = O=C([C@H](C[C@@H](O)[C@@H](O)N[*:3])N[*:1])[*:2]; Pro(3S-OH,4S-Me) = C[C@H]1CN[C@H](C(=O)O)[C@H]1O; X1 = CCCCCOc1ccc(-c2cc(-c3ccc(C(=O)*)cc3)no2)cc1; Gln(3R-OH) = NC(=O)C[C@@H](O)[C@H](N)C(=O)O; Hyp = O=C(O)[C@@H]1C[C@@H](O)CN1

System: Rat Primary Kidney Glomerular Endothelial cells
Experiment: Oxygen and glucose deprivation followed by replenishment, cell survival (calcein AM), rat glomerular endothelial cells;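 for Survival rate (%): 100% is hypoxia control with glucose and 0% is untreated OGD control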
Format: cell-based
Experimental: Anidulafungin and micafungin were tested on Human Renal Glomerular Endothelial Cells (HRGEC, Innoprot P10665), on Human Renal Proximal Tubular Epithelial Cells (HRPTEpiC, Innoprot P10662), on Human Astrocytes (HA, caltag SC-1800), on Human Cardiac Microvascular Endothelial Cells (HCMEC, Caltag SC-6000), on Human Hepatic Sinusoidal Endothelial Cells (HHSEC, Caltag SC-5000), on Rat Primary Kidney Glomerular Endothelial cells (Cellbiologics, RN-6014G) and on Bovine Brain Microvascular Endothelial Cells (BBMEC, Caltag SC-B100).
In a first phase, these isolated, purified and cryopreserved cells are thawed and multiplied according to the supplier's recommendations in T75 or T175 flasks pre-coated with 2 μg of fibronectin/[…] (CORNING) for HRGEC, HCMEC, HHSEC and BBMEC, or 2 μg poly-L-lysin/cm^2 (Caltag SC-0403) for HRPTEpiC and HA, or 15 mL/flask 175 cm^2 gelatin-based solution (Cellbiologics) in the presence of endothelial cell supplemented growth medium ECM (P60104, INNOPROT, Caltag, SC-1001) for HRGEC, HCMEC, HHSEC, RPKGEC or BBMEC, or astrocyte cell supplemented growth medium AM (Caltag SC-1801) for HA or epithelial cell supplemented growth medium EpiCM (P60106, INNOPROT) for HRPTEpiC, at 37° C. under 5% CO2 and saturated humidity until their confluency. They are then harvested by trypsinization according to the method described by the supplier for exactly 5 minutes and then reseeded in new flasks a maximum of three times.
To carry out the oxygen and glucose deprivation test followed by their replenishment, the cells will be seeded in 96-well black plates with transparent flat bottom (GREINER). Once a sufficient number of cells has been obtained to allow seeding of 2000 to 15000 cells per well of 96-well plates depending on the cell type, the cells are seeded in these 96-well plates previously coated with an extracellular matrix as listed above for the flasks. The cells are cultured for 5 to 8 days according to the cell type, in the presence of the same growth medium as in the flask as described above except for HRGEC and HRPTEpiC for which DMEM (DUTSCHER) with 1 g/L of supplemented glucose is used, at 37° C. under 5% CO2 and saturated humidity to obtain confluency.
On the first day of oxygen and glucose deprivation, (5th, 6th, 7th or 8th day of culture), the culture conditions are drastically changed. The medium of all plates is removed and replaced by DMEM (DUTSCHER) medium without glucose and supplemented only with 1% penicillin-streptomycin (DUTSCHER). Anidulafungin or micafungin dissolved in dimethyl sulfoxide (DMSO) is then added to each well at the desired concentration, resulting in a maximum of 1% DMSO, and the plates are placed under hypoxia at <1% 02 and 5% CO2 at 37° C. for 24 hours of culture. Each compound was tested in a concentration range.
After 24 hours, the growth medium is changed and replaced by a richer medium, DMEM (DUTSCHER) at 1 g/L glucose and 2% FBS (INNOPROT) and 1% penicillin-streptomycin (DUTSCHER). These media will have been pre-equilibrated at 37° C. in advance. The cells are then returned to culture at 37° C. under 20% 02 and 5% CO2 for 22h.
After 22 hours of reoxygenation, the potential protective effect of anidulafungin or micafungin is measured by a cell viability test using calcein AM (CORNING), which is a dye substrate. The calcein AM can easily cross the cell membrane of the viable cells. The AM ester groups mask the part of the molecule that chelates calcium. Once inside the cells, the (non-fluorescent) calcein AM is hydrolyzed to (fluorescent) calcein by endogenous esterases. The resulting calcein molecule binds to calcium inside the cell and remains trapped inside the cell. These molecules emit strong green fluorescence when subjected to […] of a particular wavelength (495 nm). Since dead cells lack esterase activity, only living cells are labelled.
This cell viability test is performed in two steps. […]

How did the “Globalfluo assay 1” value ([Micafungin] log μM 0) turn out when `CCCCCOc1ccc(-c2cc(-c3ccc(C(=O)N[C@H]4C[C@@H](O)[C@@H](O)NC(=O)[C@@H]5[C@@H](O)[C@@H](C)CN5C(=O)[C@H]([C@H](O)CC(N)=O)NC(=O)[C@H]([C@H](O)[C@@H](O)c5ccc(O)c(OS(=O)(=O)O)c5)NC(=O)[C@@H]5C[C@@H](O)CN5C(=O)[C@H]([C@@H](C)O)NC4=O)cc3)no2)cc1` [Micafungin, {5-[(1S,2S)-2-[(3S,6S,9S,11R,15S,18S,20R,21R,24S,25S,26S)-3-[(1R)-2-carbamoyl-1-hydroxyethyl]-11,20,21,25-tetrahydroxy-15-[(1R)-1-hydroxyethyl]-26-methyl-2,5,8,14,17,23-hexaoxo-18-[(4-{5-[4-(pentyloxy)phenyl]-1,2-oxazol-3-yl}benzene)amido]-1,4,7,13,16,22-hexaazatricyclo[22.3.0.0]heptacosan-6-yl]-1,2-dihydroxyethyl]-2-hydroxyphenyl}oxidanesulfonic acid] (X1-[Orn(4R-OH,5R-OH)]T[Hyp][hTyr(3S-OH,4S-OH,3'-OSO3H)][Gln(3R-OH)][Pro(3S-OH,4S-Me)]; lactam 1-C) was run?
The value was 5417339 arbitrary units.

And the “Globalfluo assay 2” value ([Micafungin] log μM 0)?
The value was 3464807 arbitrary units.

What about the “Globalfluo assay 3” value ([Micafungin] log μM 0) of the same compound?
The value was 4867657 arbitrary units.

What about the Mean globalfluo ([Micafungin] log μM 0) of the same compound?
Its Mean globalfluo is 4583268 arbitrary units.

What about the “Survival rate (%)” value ([Micafungin] log μM 0) of the same compound?
Its value is 3%.

And the “Globalfluo assay 1” value ([Micafungin] log μM 0.1760913)?
The value was 8740776 arbitrary units.

What about the “Globalfluo assay 2” value ([Micafungin] log μM 0.1760913) of the same compound?
Its value is 7981119 arbitrary units.

And the “Globalfluo assay 3” value ([Micafungin] log μM 0.1760913)?
The value was 5239211 arbitrary units.

And the Mean globalfluo ([Micafungin] log μM 0.1760913)?
Its Mean globalfluo is 7320369 arbitrary units.

And the “Survival rate (%)” value ([Micafungin] log μM 0.1760913)?
Its value is 14%.

And the “Globalfluo assay 1” value ([Micafungin] log μM 0.30103)?
The value was 3351615 arbitrary units.

What about the “Globalfluo assay 2” value ([Micafungin] log μM 0.30103) of the same compound?
Its value is 4221516 arbitrary units.

What about the “Globalfluo assay 3” value ([Micafungin] log μM 0.30103) of the same compound?
The value was 4567106 arbitrary units.

And the Mean globalfluo ([Micafungin] log μM 0.30103)?
The Mean globalfluo was 4046746 arbitrary units.

What about the “Survival rate (%)” value ([Micafungin] log μM 0.30103) of the same compound?
Its value is 0%.

What about the “Globalfluo assay 1” value ([Micafungin] log μM 0.39794) of the same compound?
The value was 5495171 arbitrary units.

What about the “Globalfluo assay 2” value ([Micafungin] log μM 0.39794) of the same compound?
The value was 5446233 arbitrary units.

And the “Globalfluo assay 3” value ([Micafungin] log μM 0.39794)?
Its value is 3835973 arbitrary units.

What about the Mean globalfluo ([Micafungin] log μM 0.39794) of the same compound?
The Mean globalfluo was 4925792 arbitrary units.

And the “Survival rate (%)” value ([Micafungin] log μM 0.39794)?
Its value is 4%.

And the “Globalfluo assay 1” value ([Micafungin] log μM 0.4771213)?
The value was 4782175 arbitrary units.

What about the “Globalfluo assay 2” value ([Micafungin] log μM 0.4771213) of the same compound?
Its value is 7854686 arbitrary units.

What about the “Globalfluo assay 3” value ([Micafungin] log μM 0.4771213) of the same compound?
The value was 4782283 arbitrary units.

And the Mean globalfluo ([Micafungin] log μM 0.4771213)?
Its Mean globalfluo is 5806381 arbitrary units.

What about the “Survival rate (%)” value ([Micafungin] log μM 0.4771213) of the same compound?
Its value is 8%.

What about the “Globalfluo assay 1” value ([Micafungin] log μM 0.60206) of the same compound?
The value was 12878800 arbitrary units.

And the “Globalfluo assay 2” value ([Micafungin] log μM 0.60206)?
Its value is 13369330 arbitrary units.

And the “Globalfluo assay 3” value ([Micafungin] log μM 0.60206)?
The value was 12813230 arbitrary units.

And the Mean globalfluo ([Micafungin] log μM 0.60206)?
Its Mean globalfluo is 13020453 arbitrary units.

What about the “Survival rate (%)” value ([Micafungin] log μM 0.60206) of the same compound?
The value was 37%.

What about the “Globalfluo assay 1” value ([Micafungin] log μM 0.69897) of the same compound?
The value was 14177330 arbitrary units.

And the “Globalfluo assay 2” value ([Micafungin] log μM 0.69897)?
Its value is 11602990 arbitrary units.

What about the “Globalfluo assay 3” value ([Micafungin] log μM 0.69897) of the same compound?
The value was 9423392 arbitrary units.

What about the Mean globalfluo ([Micafungin] log μM 0.69897) of the same compound?
Its Mean globalfluo is 11734571 arbitrary units.

And the “Survival rate (%)” value ([Micafungin] log μM 0.69897)?
The value was 31%.

And the “Globalfluo assay 1” value ([Micafungin] log μM 0.7781513)?
The value was 5553126 arbitrary units.

What about the “Globalfluo assay 2” value ([Micafungin] log μM 0.7781513) of the same compound?
The value was 6638483 arbitrary units.

And the “Globalfluo assay 3” value ([Micafungin] log μM 0.7781513)?
The value was 7505823 arbitrary units.

What about the Mean globalfluo ([Micafungin] log μM 0.7781513) of the same compound?
Its Mean globalfluo is 6565811 arbitrary units.

What about the “Survival rate (%)” value ([Micafungin] log μM 0.7781513) of the same compound?
The value was 11%.

And the “Globalfluo assay 1” value ([Micafungin] log μM 0.845098)?
Its value is 7968558 arbitrary units.

What about the “Globalfluo assay 2” value ([Micafungin] log μM 0.845098) of the same compound?
Its value is 13328410 arbitrary units.

What about the “Globalfluo assay 3” value ([Micafungin] log μM 0.845098) of the same compound?
Its value is 4864200 arbitrary units.

What about the Mean globalfluo ([Micafungin] log μM 0.845098) of the same compound?
The Mean globalfluo was 8720389 arbitrary units.

What about the “Survival rate (%)” value ([Micafungin] log μM 0.845098) of the same compound?
The value was 19%.

What about the “Globalfluo assay 1” value ([Micafungin] log μM 0.90309) of the same compound?
Its value is 16467230 arbitrary units.

And the “Globalfluo assay 2” value ([Micafungin] log μM 0.90309)?
The value was 5461253 arbitrary units.

What about the “Globalfluo assay 3” value ([Micafungin] log μM 0.90309) of the same compound?
The value was 9297072 arbitrary units.

What about the Mean globalfluo ([Micafungin] log μM 0.90309) of the same compound?
Its Mean globalfluo is 10408518 arbitrary units.

And the “Survival rate (%)” value ([Micafungin] log μM 0.90309)?
Its value is 26%.

And the “Globalfluo assay 1” value ([Micafungin] log μM 0.9542425)?
The value was 17001920 arbitrary units.

What about the “Globalfluo assay 2” value ([Micafungin] log μM 0.9542425) of the same compound?
Its value is 15398170 arbitrary units.

And the “Globalfluo assay 3” value ([Micafungin] log μM 0.9542425)?
Its value is 11994410 arbitrary units.

What about the Mean globalfluo ([Micafungin] log μM 0.9542425) of the same compound?
Its Mean globalfluo is 14798167 arbitrary units.

What about the “Survival rate (%)” value ([Micafungin] log μM 0.9542425) of the same compound?
Its value is 44%.

And the “Globalfluo assay 1” value ([Micafungin] log μM 1)?
Its value is 24112850 arbitrary units.

What about the “Globalfluo assay 2” value ([Micafungin] log μM 1) of the same compound?
The value was 13345620 arbitrary units.

And the “Globalfluo assay 3” value ([Micafungin] log μM 1)?
Its value is 20572260 arbitrary units.

And the Mean globalfluo ([Micafungin] log μM 1)?
Its Mean globalfluo is 19343577 arbitrary units.

And the “Survival rate (%)” value ([Micafungin] log μM 1)?
Its value is 62%.

And the “Globalfluo assay 1” value ([Micafungin] log μM 1.041393)?
Its value is 8422700 arbitrary units.

What about the “Globalfluo assay 2” value ([Micafungin] log μM 1.041393) of the same compound?
Its value is 12678250 arbitrary units.

And the “Globalfluo assay 3” value ([Micafungin] log μM 1.041393)?
Its value is 11578770 arbitrary units.

What about the Mean globalfluo ([Micafungin] log μM 1.041393) of the same compound?
Its Mean globalfluo is 10893240 arbitrary units.

And the “Survival rate (%)” value ([Micafungin] log μM 1.041393)?
The value was 28%.

And the “Globalfluo assay 1” value ([Micafungin] log μM 1.079181)?
Its value is 11147190 arbitrary units.

What about the “Globalfluo assay 2” value ([Micafungin] log μM 1.079181) of the same compound?
Its value is 19591720 arbitrary units.

And the “Globalfluo assay 3” value ([Micafungin] log μM 1.079181)?
The value was 15002320 arbitrary units.

And the Mean globalfluo ([Micafungin] log μM 1.079181)?
The Mean globalfluo was 15247077 arbitrary units.

What about the “Survival rate (%)” value ([Micafungin] log μM 1.079181) of the same compound?
Its value is 46%.
